Laboratory results published in patent US9174998B2, “(6S,9aS)-N-benzyl-6-[(4-hydroxyphenyl)methyl]-4,7-dioxo-8-({6-[3-(piperazin-1-yl)azetidin-1-yl]pyridin-2-yl}methyl)-2-(prop-2-en-1-yl)-octahydro-1H-pyrazino[2,1-c][1,2,4]triazine-1-carboxamide compound” (Eisai R&D Management Co., Ltd., priority 2013, dated 2015).
pIC50: −log10 of the molar value.

Experiments:
[1] = Evaluation of solubility (Examples 25 and 26), visual judgment; format: physicochemical; conditions: aqueous buffer, thermodynamic from solid; Dulbecco's phosphate-buffered saline pH 7; about 10 mg sample, test solution added in 0.1 mL portions until dissolved
Description: About 10 mg of a sample was weighed accurately and placed in a 10-mL polypropylene test tube, a test solution shown below was added thereto by portions (0.1 mL) until the sample was dissolved completely. When the test solution was added, the mixed solution was stirred intermittently in a range from about 30 seconds to 3 minutes using a Vortex mixer every time the test solution was added. The solubility (mM) of the sample was calculated from the added amount of the test solution required until the presence of any solid material was not observed by visual judgment.
Test solution: GIBCO (registered trade name) (Dulbecco's phosphate-buffered saline having a pH value of 7, Invitrogen Corporation)

Wnt signal = assay: Detection of Wnt signal (TOPglow luciferase reporter, LiCl-stimulated); format: cell-based; conditions: Homo sapiens; HEK293 clone carrying pNeo-TOP reporter; LiCl stimulation; luciferase luminescence; read-out: Test Example 1 IC50 (concentration required for inhibiting the Wnt signal activity by 50%)
Outline: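 Stable HEK293 clone carrying a TOPglow TCF/Wnt-responsive luciferase reporter, stimulated with 80 mM LiCl in the diluted sample medium alongside compound; luminescence read with Bright-Glo 6 h after addition. IC50 derived from activity scaled between LiCl-only wells (100%) and wells lacking both LiCl and sample (0%).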

SMILES | solubility [1] | pIC50 (Wnt signal)
C=CCN1CC(=O)N2[C@@H](Cc3ccc(OP(=O)(O)O)cc3F)C(=O)N(Cc3cccc(N4CC(N5CCN(CC)CC5)C4)n3)C[C@@H]2N1C(=O)NCc1ccccc1 [Example 25, 4-(((6S,9aS)-1-(Benzylcarbamoyl)-8-((6-(3-(4-ethylpiperazin-1-yl)azetidin-1-yl)pyridin-2-yl)methyl)-4,7-dioxo-2-(prop-2-en-1-yl)-octahydro-1H-pyrazino[2,1-c][1,2,4]triazin-6-yl)methyl)-3-fluorophenyl dihydrogen phosphate] | ≥ 124 mM | 6.74
C=CCN1CC(=O)N2C(CN(Cc3cccc(N4CC(N5CCN(CC)CC5)C4)n3)C(=O)[C@@H]2Cc2ccc(OP(=O)(O)O)cc2)N1C(=O)NCc1ccccc1 (stereo partly drawn) [Example 26, 4-(((6S,9aS)-1-(Benzylcarbamoyl)-8-((6-(3-(4-ethylpiperazin-1-yl)azetidin-1-yl)pyridin-2-yl)methyl-4,7-dioxo-2-(prop-2-en-1-yl)-octahydro-1H-pyrazino[2,1-c][1,2,4]triazin-6-yl)methyl)phenyldihydrogen phosphate] | 42 to 62 mM | 5.92
